The nature of data set [1]: Plasma pharmacokinetics and oral bioavailability in rats. In kind it is in vivo, rat. The following applies: male Sprague Dawley rats, 5 mg/kg, LOQ 0.001 ug/mL. Here is the method: Pharmacokinetic studies in rats are useful for the identification of DGAT-1 inhibitors that have low oral bioavailability and show low systemic exposure (i.e. low circulating levels in plasma).
Methods: Groups of male Sprague Dawley rats (200-250 g) (n=3/group) were administered either an IV bolus (1% Tween-80, pH adjusted to 7, vehicle) or an oral gavage (50% PEG-200 in 1% Tween-80 vehicle) of 5 mg/kg of each DGAT-1 inhibitor. Blood (EDTA) was collected by tail nick at 0.5, 1, 2, 4, 8, 10-12 and 24 hr post dose. Following centrifugation of the blood to obtain plasma, the samples were analyzed by LC-MS/MS method for active metabolite. The pharmacokinetic parameters were calculated by noncompartmental analysis of the plasma concentration-time profile of the active metabolite. The oral bioavailability was determined by dividing the dose-normalized plasma AUC value of the active metabolite following oral administration of the DGAT-1 inhibitor by the plasma AUC value of the active metabolite after IV bolus administration.

The test system of another data set is Sprague Dawley rats. Briefly: In vivo assay for intestinal triglyceride export (serum TAG after olive oil gavage). Also on record: species or system rat. The following applies: oral administration, doses in the range of 0.1 to 30 mg/kg. Here is the method:
The following screen can be used to evaluate the effects of DGAT-1 inhibitors on the export of dietary TAGs from the intestine to the circulation in rodents (male Sprague Dawley rats or C57BL/6 mice).
Methods: Animals (housed 2/cage) are fasted overnight, and dosed (PO) the next day with vehicle (1% Tween-80) or test compound at doses ranging from 0.01 to 30 mg/kg, followed by an oral gavage of olive oil. Blood samples are taken at baseline and at appropriate intervals over the course of 4 hours. Serum TAG levels are determined using the Infinity triglyceride reagent per the manufacturer's instructions.

The next data set has as its target hDGAT1 (Homo sapiens (Human), UniProt O75907). Briefly: Inhibition of human microsomal DGAT activity (14C-TAG formation, intestinal microsomes). In kind it is biochemical. On the procedure:
The inhibition of DGAT-1 activity can be assessed in intestinal microsome preparations by monitoring the incorporation of radiolabeled fatty acyl-CoA into […].
Methods: Commercial microsomal preparations containing 60 ug of protein are incubated in assay buffer [20 uM 1,2-didecanloyl glycerol, 5 uM ^14C decanoyl-CoA, 5 mM MgCl2, 0.4% BSA, 0.1% dimethyl sulfoxide (DMSO), 50 mM HEPES-pH 7.5] in the presence of varying concentrations of inhibitors that are dispensed from 100% DMSO stock solutions. Final assay volumes are 200 uL. Reactions are carried out for 45 minutes in 96-well polystyrene microtiter plates at ambient temperature. Following the ambient temperature incubation, assay mixtures are applied to a 96-well filter plate (Catalog # MSHVN4510, Millipore Inc.; Billerica, Mass.) under vacuum. The filter plate is pre-equilibrated with 100 uL of 70% ethanol followed by 200 uL of assay buffer. […] De novo ^14C-TAG formed in the assay and trapped on the filters is quantified with use of a liquid scintillation counter (Model # LS6500 Beckman Coulter, Inc.; Fullerton, Calif.).

Setting [2] is: microsomal preparation, 14C decanoyl-CoA, 45 min, ambient temperature.

Like-named read-outs stand apart in the source and are kept apart here. Where only a bound is given, the exact number is not on record here.

hDGAT1, sequence (O75907 whole entry): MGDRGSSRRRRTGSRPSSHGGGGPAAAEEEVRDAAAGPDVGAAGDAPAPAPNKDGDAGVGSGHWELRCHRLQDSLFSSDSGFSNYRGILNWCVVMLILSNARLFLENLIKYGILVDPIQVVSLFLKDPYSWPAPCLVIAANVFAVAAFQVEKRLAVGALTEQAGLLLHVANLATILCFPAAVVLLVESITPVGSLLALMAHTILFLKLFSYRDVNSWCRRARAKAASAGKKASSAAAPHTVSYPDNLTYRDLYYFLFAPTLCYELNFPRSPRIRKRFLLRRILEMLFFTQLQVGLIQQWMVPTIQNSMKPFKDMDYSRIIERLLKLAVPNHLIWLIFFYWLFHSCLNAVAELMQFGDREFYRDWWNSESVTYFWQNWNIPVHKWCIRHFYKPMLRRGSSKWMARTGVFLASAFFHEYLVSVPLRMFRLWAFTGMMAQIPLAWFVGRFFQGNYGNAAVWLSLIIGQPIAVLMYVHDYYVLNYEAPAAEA

In the case of `CP(=O)(O)[C@@H]1CCC[C@H]1C(=O)c1ccc(-c2ccc(NC(=O)Nc3ccccc3)cc2)cc1` [Compound 2], the Cmax in data set [1] turned out to be 5 ng/mL. For the same compound, in the data set with Sprague Dawley rats, the “AUC0-4h of serum TAGs” value is “reduced”.
`CC1(C)Oc2ncnc(N)c2N=C1c1ccc([C@H]2CC[C@H](OP(=O)(O)O)CC2)cc1` [Compound 3]: the IC50 on hDGAT1 (setting [2]) is less than 10 nM.
Same read-out and setting: in the case of `CC1(C)Oc2ncnc(N)c2N=C1c1ccc([C@H]2CC[C@H](OP(=O)(O)c3ccsc3)CC2)cc1` [Compound 20] it was less than 10 nM; in that of `CC1(C)Oc2ncnc(N)c2N=C1c1ccc(C2CCC(OP(=O)(O)Cc3ccccc3)CC2)cc1` (stereo not shown) [Compound 11], less than 10 nM.
At hDGAT1 (setting [2]), `CC1(C)Oc2ncnc(N)c2N=C1c1ccc(C2CCC(OP(=O)(O)OC3CCCC3)CC2)cc1` (stereo not shown) [Compound 10] had a 50% inhibitory concentration (IC50) of less than 10 nM.
In the case of `CC1(C)Oc2ncnc(N)c2N=C1c1ccc([C@H]2CC[C@H](CP(C)(=O)O)CC2)cc1` [Compound 1], in data set [1], the peak concentration (Cmax) was determined as 9 ng/mL. Also, in the data set with Sprague Dawley rats, the “AUC0-4h of serum TAGs” value was “reduced”. The compound further gave an IC50 on hDGAT1 (setting [2]) of less than 10 nM.
In the case of `CC1(C)Oc2ncnc(N)c2N=C1c1ccc([C@H]2CC[C@H](CP(=O)(O)c3ccccc3)CC2)cc1` [Compound 21], on hDGAT1 (setting [2]), the IC50 was less than 10 nM.
Same read-out and setting: in the case of `CC(C)COP(=O)(O)O[C@H]1CC[C@H](c2ccc(C3=Nc4c(N)ncnc4OC3(C)C)cc2)CC1` [Compound 8] it was less than 10 nM.
On the same count and under the same terms, in the case of `CC1(C)Oc2ncnc(N)c2N=C1c1ccc([C@H]2CC[C@H](OP(=O)(O)c3ccccc3)CC2)cc1` [Compound 14] it was less than 10 nM.
As for `CCOP(=O)(O)OC1CCC(c2ccc(C3=Nc4c(N)ncnc4OC3(C)C)cc2)CC1` (stereo not shown) [Compound 9], at hDGAT1, the IC50 is less than 10 nM.
As to `CC1(C)Oc2ncnc(N)c2N=C1c1ccc([C@H]2CC[C@H](CP(=O)(O)C3CC3)CC2)cc1` [Compound 23], at hDGAT1 (setting [2]), the IC50 is less than 10 nM.
Compound `CP(=O)(O)C[C@H]1CC[C@H](c2ccc(NC(=O)c3nnc(Nc4ccc(F)c(F)c4)o3)cc2)CC1` [Compound 5] gave a Cmax in data set [1] of 3 ng/mL. Besides, in the data set on Sprague Dawley rats, the “AUC0-4h of serum TAGs” value is given as “reduced”. Further, the half-maximal inhibitory concentration (IC50) against hDGAT1 (setting [2]) is less than 10 nM.
The compound `CC1(C)Oc2ncnc(N)c2N=C1c1ccc([C@H]2CC[C@H](OP(=O)(O)Cc3ccc(C(=O)O)cc3)CC2)cc1` [Compound 17] came in with an IC50 on hDGAT1 (setting [2]) of less than 10 nM.
On the same count and under the same terms, in the case of `CC1(C)Oc2ncnc(N)c2N=C1c1ccc([C@H]2CC[C@H](OP(=O)(O)c3cccs3)CC2)cc1` [Compound 19] it was less than 10 nM.

The values above are taken from patent publication US10709718B2, “Inhibitors of diacylglycerol O-acyltransferase 1 (DGAT-1) and uses thereof” (Metabasis Therapeutics, Inc., priority 2009, dated 2020).
